From publication PMC4980083 (JCI insight, 2016) come the findings set out here.

For one assay, the target named is T1, recombinant AR LBD (Homo sapiens, UniProt P10275).
T1 sequence (P10275 669-900 limits assumed): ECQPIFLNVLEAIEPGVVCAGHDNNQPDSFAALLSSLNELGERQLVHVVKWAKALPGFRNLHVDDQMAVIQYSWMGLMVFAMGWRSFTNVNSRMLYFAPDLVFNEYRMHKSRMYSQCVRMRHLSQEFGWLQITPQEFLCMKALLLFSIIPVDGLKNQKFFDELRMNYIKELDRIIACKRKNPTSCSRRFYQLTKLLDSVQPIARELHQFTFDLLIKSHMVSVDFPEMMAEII
Nature of the assay: Fluorescence polarization competition binding, AR LBD. To be noted: 1 nM fluorescently labeled ligand, AR LBD 25 nM.

Assay [1] has as its system LNCaP95 cells. Nature of the assay: LNCaP95 proliferation, BrdU incorporation. The conditions noted are these: I-EPI-002 2 μM, EPI-002 25 μM, enzalutamide 5 μM; 2 days. The format is cell-based, human.
In assay [2] the test system is LNCaP95 cells. The assay is described as follows: Cell cycle analysis of LNCaP95 cells. The format is cell-based, human. The conditions noted are these: I-EPI-002 5 μM, EPI-002 25 μM, 48 hours.
The target in a further assay is T2, recombinant AR AF-1 (Homo sapiens, UniProt P10275).
T2 sequence (P10275 142-485): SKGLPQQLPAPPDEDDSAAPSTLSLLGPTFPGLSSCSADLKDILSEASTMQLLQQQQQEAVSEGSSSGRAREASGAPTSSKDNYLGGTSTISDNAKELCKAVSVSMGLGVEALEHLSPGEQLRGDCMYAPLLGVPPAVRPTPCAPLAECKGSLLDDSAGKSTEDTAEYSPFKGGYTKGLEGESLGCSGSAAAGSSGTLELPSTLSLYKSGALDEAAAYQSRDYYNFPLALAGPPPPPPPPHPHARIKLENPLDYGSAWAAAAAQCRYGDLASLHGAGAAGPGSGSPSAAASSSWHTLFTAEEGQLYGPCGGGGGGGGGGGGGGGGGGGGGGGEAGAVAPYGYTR
The assay is described as follows: Cell-free binding to recombinant AR AF-1, competition with cold EPI-002. To be noted: preincubation with 60 μM EPI-002 for 6 hours.

In assay [3] the target is T3, endogenous full-length AR (Homo sapiens, UniProt P10275, T878A).
T3 sequence (P10275 1-920 T878A): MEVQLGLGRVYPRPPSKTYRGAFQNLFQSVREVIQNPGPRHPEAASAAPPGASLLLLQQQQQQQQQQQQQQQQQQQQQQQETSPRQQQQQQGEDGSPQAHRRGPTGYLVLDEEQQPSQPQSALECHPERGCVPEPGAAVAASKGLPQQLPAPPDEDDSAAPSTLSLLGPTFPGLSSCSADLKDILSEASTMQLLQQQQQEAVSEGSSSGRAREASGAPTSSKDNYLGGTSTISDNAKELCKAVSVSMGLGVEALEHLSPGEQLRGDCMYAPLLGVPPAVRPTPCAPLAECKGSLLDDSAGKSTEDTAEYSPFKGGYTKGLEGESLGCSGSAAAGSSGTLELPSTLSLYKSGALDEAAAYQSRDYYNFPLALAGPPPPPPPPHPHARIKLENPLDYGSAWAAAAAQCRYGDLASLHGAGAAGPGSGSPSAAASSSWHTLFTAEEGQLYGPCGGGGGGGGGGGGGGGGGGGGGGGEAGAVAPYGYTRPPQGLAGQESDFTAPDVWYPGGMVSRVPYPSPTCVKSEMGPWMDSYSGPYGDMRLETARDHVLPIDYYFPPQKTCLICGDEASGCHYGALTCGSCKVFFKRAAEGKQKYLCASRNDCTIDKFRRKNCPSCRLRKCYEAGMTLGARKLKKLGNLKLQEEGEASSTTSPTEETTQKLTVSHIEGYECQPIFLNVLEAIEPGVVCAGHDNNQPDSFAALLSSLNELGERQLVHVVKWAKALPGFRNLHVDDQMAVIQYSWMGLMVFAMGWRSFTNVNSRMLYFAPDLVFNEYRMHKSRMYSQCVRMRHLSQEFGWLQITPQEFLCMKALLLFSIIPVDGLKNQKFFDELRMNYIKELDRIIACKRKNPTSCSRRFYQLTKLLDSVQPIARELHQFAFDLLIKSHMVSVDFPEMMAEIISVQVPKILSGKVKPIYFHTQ
The assay is described as follows: AR transcriptional activity, PSA.

For assay [4], the system named is LNCaP95 cells. Nature of the assay: Western blot of cell cycle G1/S-related proteins in LNCaP95 cells. It is filed as cell-based, human. To be noted: enzalutamide 5 μM, EPI-002 25 μM, I-EPI-002 5 μM; 48 hours.

Where only a bound is given, the exact number is not on record here.

Consider `CC(C)(c1ccc(OC[C@H](O)CO)cc1)c1ccc(OC[C@H](O)CCl)cc1` [EPI-002, reference compound], for which the “competition with fluoromone for binding to AR LBD” value on recombinant AR LBD is listed as “did not prevent ligand-binding”. Moreover, the “effect on proliferation of LNCaP95 cells” value in the assay on LNCaP95 cells [1] is listed as “decreased proliferation”. Also, in the assay with LNCaP95 cells [2], the “decrease of S phase cells” value is not below 2 fold. In addition, at recombinant AR AF-1, the “displacement of ^123I-EPI-002 binding to AF-1” value is listed as “displaced binding”. Besides, in assay [3] (25 μM, R1881 1 nM), the “inhibition of AR transcriptional activity” value was approximately 75%. In addition, the “inhibition of AR transcriptional activity with increasing concentrations of androgen” value in assay [3] (increasing R1881, enzalutamide 5 μM, I-EPI-002 5 μM, EPI-002 25 μM) is reported as “maintained effective inhibition”.

For the molecule `CNC(=O)c1ccc(N2C(=S)N(c3ccc(C#N)c(C(F)(F)F)c3)C(=O)C2(C)C)cc1F` [enzalutamide], in the assay on LNCaP95 cells [4], the “expression of UBE2C, cyclinD3 and cyclin-dependent kinases (CDKs)” value is reported as “had no effect”; the “protein expression of the CDK inhibitor p27kip1” value is reported as “had no effect”.
